Drawing on BindingDB's records for patent US11104664 (Yangtze River Pharmaceutical Group Co., 2021), this text covers IC50 for one compound.

The structures appear in SMILES notation.

The target in the test is Histone-lysine N-methyltransferase EZH2 [Y641F] (Homo sapiens, UniProt Q15910, Y641F). Description: In Vitro Methyltransferase Activity Assay. How it is done: Recombinant PRC2 (EZH2-Y641F) was purchased from Active motif, S-adenosyl-methionine (SAM) and Poly-L-lysine (PLL) were purchased from Sigma-Aldrich, and H3(1-50)K27me1 peptide was purchased from Cisbio. LANCEUltrasystem (Perkinelmer) was used for detection system. In the enzyme activity test, compounds to be tested were diluted by 8 gradient points in a ratio of 1:3, and added into each well in a reaction plate, and 100 ng recombinase was added, followed by a buffer [20 mM Tris pH8.5, 2 mM MgCl2, 0.01% Tween-20, 1 mM TCEP] containing 2.5 uM SAM/250 nM H3 (1-50)K27me1 premixtures. Enzymatic reaction thus began at room temperature. After reacted for 3 hours, a detection solution premixed with PLL, detection antibody and Ulight was added, and reacted for 1 hour at room temperature. The fluorescence value was then read on a Tecan infinite pro. IC50 was calculated by fitting in a four-factor model in the XLfit software.
Chain of Histone-lysine N-methyltransferase EZH2 [Y641F] (Q15910 whole entry Y641F): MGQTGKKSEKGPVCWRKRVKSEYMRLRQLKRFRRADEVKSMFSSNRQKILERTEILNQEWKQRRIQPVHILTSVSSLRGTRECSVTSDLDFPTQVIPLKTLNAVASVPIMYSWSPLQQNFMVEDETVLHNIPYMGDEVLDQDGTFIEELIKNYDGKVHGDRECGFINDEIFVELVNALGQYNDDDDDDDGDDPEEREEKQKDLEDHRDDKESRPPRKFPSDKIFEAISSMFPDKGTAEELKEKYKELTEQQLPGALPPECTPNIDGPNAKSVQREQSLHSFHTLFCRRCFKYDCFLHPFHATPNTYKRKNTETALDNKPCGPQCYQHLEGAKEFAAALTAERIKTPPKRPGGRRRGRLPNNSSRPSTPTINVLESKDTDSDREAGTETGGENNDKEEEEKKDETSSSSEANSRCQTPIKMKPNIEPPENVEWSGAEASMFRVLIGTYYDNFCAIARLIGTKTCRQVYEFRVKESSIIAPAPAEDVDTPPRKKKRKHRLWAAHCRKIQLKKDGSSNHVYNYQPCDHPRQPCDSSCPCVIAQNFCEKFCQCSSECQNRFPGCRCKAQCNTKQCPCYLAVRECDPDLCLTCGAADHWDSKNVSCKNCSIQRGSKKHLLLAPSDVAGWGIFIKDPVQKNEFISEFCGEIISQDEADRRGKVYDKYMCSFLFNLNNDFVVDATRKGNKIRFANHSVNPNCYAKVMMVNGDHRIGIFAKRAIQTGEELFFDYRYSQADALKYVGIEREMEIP

As usually defined, the IC50 is the concentration at which inhibition is half-maximal. Take `CCN(c1c(C)c(C(=O)NCc2c(C)cc(C)[nH]c2=O)cc2c1cnn2C)C1CCOCC1` [US11104664, Compound P-7]: the IC50 was determined as 12 nM.
